Experimental data: patent US9593305B2, “Differentiation of pluripotent stem cells” (Janssen Biotech, Inc., priority 2008, dated 2017)

Tested on: H1 human embryonic stem cells
Assay: Step-wise differentiation, RT-PCR of differentiation markers (Example 17, Table 15)
Format: cell-based
Description: Stock cultures of human embryonic stem cells (H1 human embryonic stem cell line) were maintained in an undifferentiated, pluripotent state on reduced growth factor […]™ (BD Biosciences; Cat #356231)-coated dishes in MEF conditioned medium supplemented with 8 ng/ml bFGF (PeproTech Inc.; Cat #100-18B) with passage on average every four days. Passage was performed by exposing cell cultures to a solution of 1 mg/ml dispase (Invitrogen; Cat #17105-041) for 5 to 7 minutes at 37° C. followed by rinsing the monolayer with MEF conditioned culture medium and gentle scraping to recover cell clusters. Clusters were centrifuged at low speed to collect a cell pellet and remove residual dispase. Cell clusters were split at a 1:3 or 1:4 ratio for routine maintenance culture or a 1:1 ratio for immediate assay. All human ES cell lines were maintained at passage numbers less than 50 and routinely evaluated for normal karyotype and absence of mycoplasma.
Cell clusters were evenly resuspended in MEF conditioned medium supplemented with 8 ng/ml bFGF and plated onto reduced growth factor […]™-coated 24-well, black wall culture plates (Arctic White; Cat #AWLS-303012) in volumes of 0.5 ml/well. Daily feeding was conducted by aspirating spent culture medium from each well and replacing with an equal volume of fresh medium. Plates were maintained at 37° C., 5% CO2 throughout assay.
The assay was initiated by aspirating the culture medium from each well and adding back an aliquot (0.5 ml) of test medium. Test conditions for the first step of differentiation were conducted over a three-day period, feeding daily by aspirating and replacing the medium from each well with fresh test medium. On the first day of assay, 100 ng/ml activin A (PeproTech; Cat #120-14) or 100 ng/ml GDF-8 (R&D Systems, Cat #788-G8) was added to respective assay wells where each growth factor was diluted into RPMI-1640 medium (Invitrogen; Cat #: 22400) with 2% Albumin Bovine Fraction V, Fatty Acid Free (FAF BSA) (MP Biomedicals, Inc; Cat #152401). In some samples, 20 ng/ml Wnt3a (R&D Systems; Cat #1324-WN/CF) was also included. On the second day of assay, 100 ng/mlactivin A or 100 ng/ml GDF-8 was diluted into RPMI-1640 medium supplemented with 2% FAF BSA, omitting Wnt3a from all samples. In some test samples using GDF-8, Wnt3a was replaced with a given concentration of small molecule compound, added only on the first day of definitive endoderm differentiation. […] At the conclusion of the first step of differentiation, cells from some wells were harvested for flow cytometry analysis to evaluate levels of CXCR4, a marker of definitive endoderm formation. Additional wells were harvested for RT-PCR analysis to measure other markers of differentiation.
At the conclusion of the first step of definitive endoderm differentiation, replicate sets of parallel wells from each treatment group were subjected to further step-wise differentiation. It is important to note that after the first differentiation step, all wells undergoing subsequent culture and differentiation received the same treatment. The protocol for this continuing differentiation is described below.
Step 2 of the differentiation protocol was carried out over two days. Cells were fed daily by aspirating the medium from each well and replacing with a fresh aliquot (0.5 ml) of DMEM:F12 medium (Invitrogen; Cat #11330-032) containing 2% FAF BSA, 50 ng/ml FGF7 (PeproTech; Cat #100-19), and 250 nM cyclopamine-KAAD (Calbiochem; Cat #239804).
Step 3 of the differentiation protocol was carried out over four days. […]

[1] = Step 5, cells harvested at end of step, treatment given during step one

Activin A: recombinant human activin A (PeproTech), TGF-beta family member
RT-PCR CT Values AFP (Step 1): 32.8
RT-PCR CT Values CD9 (Step 1): 25.2
RT-PCR CT Values CD99 (Step 1): 24.0
RT-PCR CT Values CDH (Step 1): 21.8
RT-PCR CT Values CDH1 (Step 1): 26.1
RT-PCR CT Values CDX2 (Step 1): 36.0
RT-PCR CT Values CER1 (Step 1): 18.3
RT-PCR CT Values CXCR4 (Step 1): 20.4
RT-PCR CT Values FGF4 (Step 1): 34.0
RT-PCR CT Values FGF17 (Step 1): 20.7
RT-PCR CT Values FOXA2 (Step 1): 25.1
RT-PCR CT Values GAPDH (Step 1): 19.4
RT-PCR CT Values GATA4 (Step 1): 25.0
RT-PCR CT Values GATA6 (Step 1): 22.9
RT-PCR CT Values GSC (Step 1): 22.4
RT-PCR CT Values HLXB9 (Step 1): 24.8
RT-PCR CT Values KIT (Step 1): 22.7
RT-PCR CT Values MIXL1 (Step 1): 28.9
RT-PCR CT Values NANOG (Step 1): 24.1
RT-PCR CT Values OTX2 (Step 1): 22.5
RT-PCR CT Values POU5F1 (Step 1): 32.2
RT-PCR CT Values SOX7 (Step 1): 32.3
RT-PCR CT Values SOX17 (Step 1): 21.6
RT-PCR CT Values T (Step 1): 36.1
RT-PCR CT Values ALB (Step 3): 26.9
RT-PCR CT Values AMY2A (Step 3): 30.6
RT-PCR CT Values ARX (Step 3): 32.0
RT-PCR CT Values CDX2 (Step 3): 22.9
RT-PCR CT Values GAPDH (Step 3): 18.5
RT-PCR CT Values GCG (Step 3): 34.1
RT-PCR CT Values HNF4A (Step 3): 22.4
RT-PCR CT Values INS (Step 3): 34.8
RT-PCR CT Values ISL1 (Step 3): 29.3
RT-PCR CT Values MAFA (Step 3): 36.4
RT-PCR CT Values MAFB (Step 3): 27.4
RT-PCR CT Values NEUROD1 (Step 3): 30.1
RT-PCR CT Values NEUROG3 (Step 3): 28.0
RT-PCR CT Values NKX2-2 (Step 3): 29.3
RT-PCR CT Values NKX2-5 (Step 3): 34.6
RT-PCR CT Values NKX6-1 (Step 3): 32.2
RT-PCR CT Values PAX4 (Step 3): 31.4
RT-PCR CT Values PAX6 (Step 3): 40.0
RT-PCR CT Values PDX1 (Step 3): 23.3
RT-PCR CT Values PECAM (Step 3): 31.0
RT-PCR CT Values POU3F4 (Step 3): 30.5
RT-PCR CT Values PTF1A (Step 3): 34.6
RT-PCR CT Values SST (Step 3): 33.2
RT-PCR CT Values ZIC1 (Step 3): 34.8
RT-PCR CT Values ALB (Step 4): 22.4
RT-PCR CT Values AMY2A (Step 4): 28.6
RT-PCR CT Values ARX (Step 4): 23.9
RT-PCR CT Values CDX2 (Step 4): 23.7
RT-PCR CT Values GAPDH (Step 4): 19.0
RT-PCR CT Values GCG (Step 4): 22.8
RT-PCR CT Values HNF4A (Step 4): 22.1
RT-PCR CT Values INS (Step 4): 23.6
RT-PCR CT Values ISL1 (Step 4): 24.1
RT-PCR CT Values MAFA (Step 4): 30.6
RT-PCR CT Values MAFB (Step 4): 23.5
RT-PCR CT Values NEUROD1 (Step 4): 23.7
RT-PCR CT Values NEUROG3 (Step 4): 23.3
RT-PCR CT Values NKX2-2 (Step 4): 24.0
RT-PCR CT Values NKX2-5 (Step 4): 31.9
RT-PCR CT Values NKX6-1 (Step 4): 27.4
RT-PCR CT Values PAX4 (Step 4): 25.7
RT-PCR CT Values PAX6 (Step 4): 27.1
RT-PCR CT Values PDX1 (Step 4): 23.7
RT-PCR CT Values PECAM (Step 4): 29.8
RT-PCR CT Values POU3F4 (Step 4): 26.5
RT-PCR CT Values PTF1A (Step 4): 29.6
RT-PCR CT Values SST (Step 4): 24.3
RT-PCR CT Values ZIC1 (Step 4): 32.5
RT-PCR CT Values ALB (Step 5): 20.2
RT-PCR CT Values AMY2A (Step 5): 27.6
RT-PCR CT Values ARX (Step 5): 22.0
RT-PCR CT Values CDX2 (Step 5): 23.4
RT-PCR CT Values GAPDH (Step 5): 18.3
RT-PCR CT Values GCG (Step 5): 14.1
RT-PCR CT Values HNF4A (Step 5): 21.3
RT-PCR CT Values INS (Step 5): 14.9
RT-PCR CT Values ISL1 (Step 5): 22.4
RT-PCR CT Values MAFA (Step 5): 31.8
RT-PCR CT Values MAFB (Step 5): 22.2
RT-PCR CT Values NEUROD1 (Step 5): 22.8
RT-PCR CT Values NEUROG3 (Step 5): 28.1
RT-PCR CT Values NKX2-2 [1]: 23.7 CT
RT-PCR CT Values NKX2-5 [1]: 34.1 CT
RT-PCR CT Values NKX6-1 [1]: 25.5 CT
RT-PCR CT Values PAX4 [1]: 27.3 CT
RT-PCR CT Values PAX6 [1]: 24.0 CT
RT-PCR CT Values PDX1 [1]: 23.2 CT
RT-PCR CT Values PECAM [1]: 30.1 CT
RT-PCR CT Values POU3F4 [1]: 28.8 CT
RT-PCR CT Values PTF1A [1]: 27.3 CT
RT-PCR CT Values SST [1]: 19.6 CT
RT-PCR CT Values ZIC1 [1]: 34.4 CT
